From ChEMBL document CHEMBL5291721, “A preclinical secondary pharmacology resource illuminates target-adverse drug reaction associations of marketed drugs” (Nat Commun, 2023)

How the values were obtained:
[1] = target: cGMP-inhibited 3',5'-cyclic phosphodiesterase 3A (Homo sapiens, UniProt Q14432); assay type: functional
[2] = target: Delta-type opioid receptor (Homo sapiens, UniProt P41143)
[3] = target: 5-hydroxytryptamine receptor 2B (Homo sapiens, UniProt P41595); assay type: functional, cell-based
[4] = target: T1, Muscarinic acetylcholine receptor M2 (Homo sapiens, UniProt P08172); assay type: functional, cell-based
T1 sequence (P08172 whole entry): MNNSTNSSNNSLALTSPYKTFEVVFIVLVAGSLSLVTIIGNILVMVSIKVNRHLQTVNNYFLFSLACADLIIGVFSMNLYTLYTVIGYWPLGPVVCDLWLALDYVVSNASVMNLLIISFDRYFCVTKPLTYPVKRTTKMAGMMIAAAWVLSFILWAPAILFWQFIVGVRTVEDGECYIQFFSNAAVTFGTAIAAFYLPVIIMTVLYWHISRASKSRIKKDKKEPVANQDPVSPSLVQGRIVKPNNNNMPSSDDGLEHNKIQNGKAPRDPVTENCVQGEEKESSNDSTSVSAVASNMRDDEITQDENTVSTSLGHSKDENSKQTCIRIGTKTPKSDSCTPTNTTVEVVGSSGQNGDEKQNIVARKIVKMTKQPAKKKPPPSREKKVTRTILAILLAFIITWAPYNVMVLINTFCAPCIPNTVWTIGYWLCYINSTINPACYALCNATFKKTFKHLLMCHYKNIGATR

[5] = target: 5-hydroxytryptamine receptor 2A (Homo sapiens, UniProt P28223); assay type: functional, cell-based
Endothelin-1 receptor = target: T2, Endothelin-1 receptor (Homo sapiens, UniProt P25101)
T2 sequence (P25101 whole entry): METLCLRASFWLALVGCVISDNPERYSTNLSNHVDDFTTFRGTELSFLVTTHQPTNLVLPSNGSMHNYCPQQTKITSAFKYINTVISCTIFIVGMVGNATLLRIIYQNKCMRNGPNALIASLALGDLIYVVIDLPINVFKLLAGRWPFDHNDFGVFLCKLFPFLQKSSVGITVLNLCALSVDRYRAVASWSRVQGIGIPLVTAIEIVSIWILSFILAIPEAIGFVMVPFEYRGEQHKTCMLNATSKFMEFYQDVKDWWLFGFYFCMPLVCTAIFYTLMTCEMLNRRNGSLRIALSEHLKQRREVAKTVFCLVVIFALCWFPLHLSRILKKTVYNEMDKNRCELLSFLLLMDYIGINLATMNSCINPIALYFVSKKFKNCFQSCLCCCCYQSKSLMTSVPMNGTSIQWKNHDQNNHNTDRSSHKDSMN

[6] = target: Sodium-dependent dopamine transporter (Homo sapiens, UniProt Q01959)
[7] = target: Sodium-dependent serotonin transporter (Homo sapiens, UniProt P31645)
Cannabinoid receptor 1 = Cannabinoid receptor 1 (Homo sapiens, UniProt P21554); assay type: functional, cell-based
[8] = target: T3, Prostaglandin G/H synthase 1 (Rattus norvegicus, UniProt Q63921); assay type: functional
T3 sequence (Q63921 whole entry): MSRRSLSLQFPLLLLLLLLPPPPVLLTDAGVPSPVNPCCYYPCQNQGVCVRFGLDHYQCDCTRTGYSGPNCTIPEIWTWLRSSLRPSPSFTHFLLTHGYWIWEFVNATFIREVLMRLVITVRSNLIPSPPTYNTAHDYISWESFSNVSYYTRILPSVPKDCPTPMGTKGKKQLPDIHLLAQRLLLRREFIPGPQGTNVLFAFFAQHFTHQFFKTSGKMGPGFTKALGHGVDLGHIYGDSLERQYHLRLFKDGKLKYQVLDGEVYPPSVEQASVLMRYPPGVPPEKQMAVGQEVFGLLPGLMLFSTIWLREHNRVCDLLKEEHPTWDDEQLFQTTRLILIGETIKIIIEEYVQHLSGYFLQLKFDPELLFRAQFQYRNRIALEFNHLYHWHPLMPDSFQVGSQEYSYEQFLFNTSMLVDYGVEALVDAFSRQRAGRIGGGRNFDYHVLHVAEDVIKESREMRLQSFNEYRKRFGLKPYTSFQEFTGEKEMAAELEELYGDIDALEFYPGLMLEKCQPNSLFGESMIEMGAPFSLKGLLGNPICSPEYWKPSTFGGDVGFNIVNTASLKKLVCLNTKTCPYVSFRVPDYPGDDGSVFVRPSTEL

[9] = target: Gamma-aminobutyric acid receptor subunit alpha-1 (Rattus norvegicus, UniProt P62813); assay type: functional
Progesterone receptor = target: T4, Progesterone receptor (Homo sapiens, UniProt P06401); assay type: functional
T4 sequence (P06401 whole entry): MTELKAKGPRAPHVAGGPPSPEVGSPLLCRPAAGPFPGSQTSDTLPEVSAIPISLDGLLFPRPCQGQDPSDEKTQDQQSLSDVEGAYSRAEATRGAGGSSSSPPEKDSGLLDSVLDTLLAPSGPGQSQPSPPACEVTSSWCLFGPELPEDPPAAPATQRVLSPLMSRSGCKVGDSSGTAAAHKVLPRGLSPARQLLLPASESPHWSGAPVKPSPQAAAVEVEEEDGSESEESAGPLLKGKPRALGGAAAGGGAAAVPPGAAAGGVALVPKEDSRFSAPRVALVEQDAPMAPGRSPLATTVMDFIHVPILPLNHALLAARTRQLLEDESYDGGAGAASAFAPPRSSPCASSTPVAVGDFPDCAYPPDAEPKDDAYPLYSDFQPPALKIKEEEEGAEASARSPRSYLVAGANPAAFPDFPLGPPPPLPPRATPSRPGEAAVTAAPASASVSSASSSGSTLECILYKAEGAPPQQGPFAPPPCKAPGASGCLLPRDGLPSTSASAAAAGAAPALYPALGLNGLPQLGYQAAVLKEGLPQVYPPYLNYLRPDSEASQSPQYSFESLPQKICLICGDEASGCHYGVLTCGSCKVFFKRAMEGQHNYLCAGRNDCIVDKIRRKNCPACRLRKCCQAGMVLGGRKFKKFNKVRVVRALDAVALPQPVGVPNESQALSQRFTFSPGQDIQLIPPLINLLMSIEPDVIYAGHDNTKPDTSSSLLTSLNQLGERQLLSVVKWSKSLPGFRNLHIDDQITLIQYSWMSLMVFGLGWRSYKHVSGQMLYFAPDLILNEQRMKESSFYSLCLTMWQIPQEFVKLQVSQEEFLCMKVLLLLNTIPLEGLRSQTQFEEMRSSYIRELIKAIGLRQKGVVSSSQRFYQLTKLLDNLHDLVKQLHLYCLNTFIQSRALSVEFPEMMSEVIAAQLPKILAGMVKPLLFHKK
Also: assay procedure not described here.

Sequence of Cannabinoid receptor 1 (P21554 whole entry): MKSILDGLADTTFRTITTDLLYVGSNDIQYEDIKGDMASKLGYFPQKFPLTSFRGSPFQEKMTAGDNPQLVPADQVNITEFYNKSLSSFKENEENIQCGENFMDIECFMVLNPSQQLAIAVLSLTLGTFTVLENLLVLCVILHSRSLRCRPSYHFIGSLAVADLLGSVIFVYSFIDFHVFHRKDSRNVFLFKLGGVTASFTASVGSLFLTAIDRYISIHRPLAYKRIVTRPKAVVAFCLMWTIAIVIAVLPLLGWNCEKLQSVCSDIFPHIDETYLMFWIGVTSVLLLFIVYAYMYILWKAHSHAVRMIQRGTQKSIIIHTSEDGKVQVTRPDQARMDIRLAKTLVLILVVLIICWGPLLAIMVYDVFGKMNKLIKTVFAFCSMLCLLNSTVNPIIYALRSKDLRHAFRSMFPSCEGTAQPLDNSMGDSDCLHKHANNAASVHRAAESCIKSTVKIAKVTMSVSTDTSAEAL
Sequence of Sodium-dependent dopamine transporter (Q01959 whole entry): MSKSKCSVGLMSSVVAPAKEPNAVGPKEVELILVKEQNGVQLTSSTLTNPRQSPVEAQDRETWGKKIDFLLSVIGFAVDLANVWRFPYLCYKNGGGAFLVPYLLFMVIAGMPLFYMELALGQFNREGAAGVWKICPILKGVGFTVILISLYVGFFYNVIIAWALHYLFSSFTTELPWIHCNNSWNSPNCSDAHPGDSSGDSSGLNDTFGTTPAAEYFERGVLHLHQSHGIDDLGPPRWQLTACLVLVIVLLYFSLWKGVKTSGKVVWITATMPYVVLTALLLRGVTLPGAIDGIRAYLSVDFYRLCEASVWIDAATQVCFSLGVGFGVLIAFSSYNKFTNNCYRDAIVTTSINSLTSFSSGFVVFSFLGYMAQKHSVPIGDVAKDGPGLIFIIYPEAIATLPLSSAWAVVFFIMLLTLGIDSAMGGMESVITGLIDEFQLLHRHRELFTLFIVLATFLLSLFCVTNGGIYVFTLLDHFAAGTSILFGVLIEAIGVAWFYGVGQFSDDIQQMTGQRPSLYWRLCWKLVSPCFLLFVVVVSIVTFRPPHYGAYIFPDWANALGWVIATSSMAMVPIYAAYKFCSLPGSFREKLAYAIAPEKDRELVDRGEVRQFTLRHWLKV
Sequence of Sodium-dependent serotonin transporter (P31645 whole entry): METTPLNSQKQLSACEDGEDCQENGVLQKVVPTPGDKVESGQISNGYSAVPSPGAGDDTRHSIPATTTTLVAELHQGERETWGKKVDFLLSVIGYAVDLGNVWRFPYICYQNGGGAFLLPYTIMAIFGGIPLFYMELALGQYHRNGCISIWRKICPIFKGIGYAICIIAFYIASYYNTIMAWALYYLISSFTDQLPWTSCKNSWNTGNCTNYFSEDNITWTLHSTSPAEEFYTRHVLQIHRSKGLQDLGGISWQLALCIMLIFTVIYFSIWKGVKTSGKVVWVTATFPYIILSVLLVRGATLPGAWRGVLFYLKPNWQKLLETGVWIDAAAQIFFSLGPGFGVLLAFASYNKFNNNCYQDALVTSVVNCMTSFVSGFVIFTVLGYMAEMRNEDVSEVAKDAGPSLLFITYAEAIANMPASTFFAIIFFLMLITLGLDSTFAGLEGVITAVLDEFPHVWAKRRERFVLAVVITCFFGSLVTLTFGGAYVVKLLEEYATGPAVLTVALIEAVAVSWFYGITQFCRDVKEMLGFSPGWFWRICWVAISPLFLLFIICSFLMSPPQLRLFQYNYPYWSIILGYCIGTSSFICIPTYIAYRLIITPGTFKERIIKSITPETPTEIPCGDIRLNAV
Sequence of cGMP-inhibited 3',5'-cyclic phosphodiesterase 3A (Q14432 whole entry): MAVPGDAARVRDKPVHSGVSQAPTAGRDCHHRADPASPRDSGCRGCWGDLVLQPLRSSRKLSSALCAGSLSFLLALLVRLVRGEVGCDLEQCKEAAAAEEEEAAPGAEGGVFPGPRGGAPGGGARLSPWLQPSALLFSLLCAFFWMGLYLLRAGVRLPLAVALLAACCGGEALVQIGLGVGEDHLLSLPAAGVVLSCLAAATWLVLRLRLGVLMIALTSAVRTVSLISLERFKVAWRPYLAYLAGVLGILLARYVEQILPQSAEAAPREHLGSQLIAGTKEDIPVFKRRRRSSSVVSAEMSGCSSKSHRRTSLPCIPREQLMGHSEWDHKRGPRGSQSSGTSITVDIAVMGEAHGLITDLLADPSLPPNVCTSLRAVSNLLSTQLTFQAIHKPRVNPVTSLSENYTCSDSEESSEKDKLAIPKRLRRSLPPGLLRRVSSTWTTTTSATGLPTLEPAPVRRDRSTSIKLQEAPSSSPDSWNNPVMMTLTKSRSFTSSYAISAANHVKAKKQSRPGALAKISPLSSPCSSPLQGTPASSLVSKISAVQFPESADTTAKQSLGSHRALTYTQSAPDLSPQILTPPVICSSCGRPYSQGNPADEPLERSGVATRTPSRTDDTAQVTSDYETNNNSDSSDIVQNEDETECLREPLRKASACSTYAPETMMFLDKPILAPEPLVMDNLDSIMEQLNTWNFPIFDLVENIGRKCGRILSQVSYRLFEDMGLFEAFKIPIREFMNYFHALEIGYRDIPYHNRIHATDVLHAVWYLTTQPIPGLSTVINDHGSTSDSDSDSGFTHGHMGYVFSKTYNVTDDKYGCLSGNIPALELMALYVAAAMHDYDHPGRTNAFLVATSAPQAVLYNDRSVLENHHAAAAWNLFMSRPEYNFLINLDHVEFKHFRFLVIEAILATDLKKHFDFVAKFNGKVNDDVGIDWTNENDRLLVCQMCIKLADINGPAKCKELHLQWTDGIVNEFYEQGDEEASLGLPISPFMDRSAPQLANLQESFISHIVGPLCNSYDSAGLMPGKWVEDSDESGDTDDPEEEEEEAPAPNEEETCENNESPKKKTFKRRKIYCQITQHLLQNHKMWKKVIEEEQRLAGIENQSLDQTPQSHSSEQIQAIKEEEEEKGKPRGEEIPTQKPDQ
Sequence of 5-hydroxytryptamine receptor 2B (P41595 whole entry): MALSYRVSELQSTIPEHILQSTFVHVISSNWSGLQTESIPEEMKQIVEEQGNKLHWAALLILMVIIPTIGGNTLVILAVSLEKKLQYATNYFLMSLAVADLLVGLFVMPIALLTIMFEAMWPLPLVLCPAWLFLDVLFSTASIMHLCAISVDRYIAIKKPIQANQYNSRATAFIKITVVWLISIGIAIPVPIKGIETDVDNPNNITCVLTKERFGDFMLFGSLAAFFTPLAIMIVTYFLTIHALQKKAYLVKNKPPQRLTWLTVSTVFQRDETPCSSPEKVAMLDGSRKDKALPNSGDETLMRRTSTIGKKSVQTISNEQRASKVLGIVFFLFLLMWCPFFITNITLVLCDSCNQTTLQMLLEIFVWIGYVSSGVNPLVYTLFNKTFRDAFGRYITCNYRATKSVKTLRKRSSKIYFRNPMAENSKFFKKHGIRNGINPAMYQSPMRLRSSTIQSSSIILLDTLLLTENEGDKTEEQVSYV
Sequence of Delta-type opioid receptor (P41143 whole entry): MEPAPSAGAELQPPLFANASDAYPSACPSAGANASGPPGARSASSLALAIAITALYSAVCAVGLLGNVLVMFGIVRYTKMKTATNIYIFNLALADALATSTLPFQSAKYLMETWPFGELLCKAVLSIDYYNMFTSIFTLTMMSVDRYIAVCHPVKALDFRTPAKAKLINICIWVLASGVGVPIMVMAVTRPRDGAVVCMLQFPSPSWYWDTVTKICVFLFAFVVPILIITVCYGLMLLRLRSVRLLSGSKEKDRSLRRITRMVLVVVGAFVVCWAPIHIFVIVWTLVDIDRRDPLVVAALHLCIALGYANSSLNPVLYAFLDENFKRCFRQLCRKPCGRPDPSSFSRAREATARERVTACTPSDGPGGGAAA
Sequence of 5-hydroxytryptamine receptor 2A (P28223 whole entry): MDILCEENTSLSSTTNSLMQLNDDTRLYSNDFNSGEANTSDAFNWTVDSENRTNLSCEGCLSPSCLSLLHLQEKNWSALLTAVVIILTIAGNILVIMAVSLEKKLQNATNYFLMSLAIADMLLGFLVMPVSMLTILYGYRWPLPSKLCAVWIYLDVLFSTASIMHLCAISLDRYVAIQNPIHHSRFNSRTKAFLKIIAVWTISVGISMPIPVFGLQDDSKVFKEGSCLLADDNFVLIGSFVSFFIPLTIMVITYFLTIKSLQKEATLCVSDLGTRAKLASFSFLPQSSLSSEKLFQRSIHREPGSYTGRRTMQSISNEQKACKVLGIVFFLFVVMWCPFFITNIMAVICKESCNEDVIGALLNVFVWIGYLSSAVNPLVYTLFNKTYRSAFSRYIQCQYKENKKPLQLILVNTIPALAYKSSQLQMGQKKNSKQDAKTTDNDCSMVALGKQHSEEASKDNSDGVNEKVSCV
Sequence of Gamma-aminobutyric acid receptor subunit alpha-1 (P62813 whole entry): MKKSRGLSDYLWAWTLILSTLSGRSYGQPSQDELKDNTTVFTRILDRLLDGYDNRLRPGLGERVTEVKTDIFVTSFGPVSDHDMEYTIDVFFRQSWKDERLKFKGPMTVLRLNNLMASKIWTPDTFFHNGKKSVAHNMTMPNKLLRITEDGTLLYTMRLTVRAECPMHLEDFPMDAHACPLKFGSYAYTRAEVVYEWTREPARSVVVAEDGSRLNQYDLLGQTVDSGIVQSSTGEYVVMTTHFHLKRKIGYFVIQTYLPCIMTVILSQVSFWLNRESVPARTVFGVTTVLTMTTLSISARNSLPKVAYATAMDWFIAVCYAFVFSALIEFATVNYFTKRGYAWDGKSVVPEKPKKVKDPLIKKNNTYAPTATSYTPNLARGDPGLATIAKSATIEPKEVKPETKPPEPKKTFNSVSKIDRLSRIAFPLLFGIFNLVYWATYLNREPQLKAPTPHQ

| Compound | AC50 [1] | AC50 [2] | AC50 [3] | AC50 [4] | AC50 [5] | AC50 (Endothelin-1 receptor) | AC50 [6] | AC50 [7] | AC50 (Cannabinoid receptor 1) | AC50 [8] | AC50 [9] | AC50 (Progesterone receptor) |
| --- | --- | --- | --- | --- | --- | --- | --- | --- | --- | --- | --- | --- |
| COC(=O)C1=C(C)NC(C)=C(C(=O)OC2CCCN(Cc3ccccc3)C2)C1c1cccc([N+](=O)[O-])c1 (configuration not stated) [BENIDIPINE] | 4.2 µM | > 30 µM | > 30 µM | > 30 µM | > 30 µM | > 30 µM | 12 µM | > 30 µM | 16 µM | > 30 µM | > 30 µM | – |
| CC(C[N+](C)(C)C)OC(N)=O (configuration not stated) [BETHANECHOL] | > 30 µM | > 30 µM | > 10 µM | 3.9 µM | > 10 µM | – | > 10 µM | > 10 µM | > 30 µM | > 10 µM | > 10 µM | > 10 µM |
| CCN1CCN(C(=O)N[C@@H](C(=O)N[C@@H]2C(=O)N3C(C(=O)O)=C(CSc4nnnn4C)CS[C@H]23)c2ccc(O)cc2)C(=O)C1=O [CEFOPERAZONE] | 9.5 µM | > 30 µM | > 30 µM | > 30 µM | > 30 µM | > 30 µM | > 30 µM | > 30 µM | > 30 µM | > 30 µM | > 30 µM | – |
| CCCCc1ncc(/C=C(\Cc2cccs2)C(=O)O)n1Cc1ccc(C(=O)O)cc1 [EPROSARTAN] | > 10 µM | > 10 µM | > 10 µM | > 10 µM | > 30 µM | > 30 µM | > 30 µM | > 30 µM | > 30 µM | > 30 µM | > 10 µM | – |
| CCc1c(Cl)c(O)c(Cl)c(O)c1C(=O)O[C@H]1[C@H](O)[C@H](OC)[C@H](OC/C2=C\C=C\C[C@H](O)/C(C)=C/[C@H](CC)[C@@H](O[C@@H]3OC(C)(C)[C@@H](OC(=O)C(C)C)[C@H](O)[C@@H]3O)/C(C)=C/C(C)=C/C[C@@H]([C@@H](C)O)OC2=O)O[C@@H]1C [FIDAXOMICIN] | > 30 µM | > 30 µM | > 30 µM | – | > 30 µM | > 30 µM | > 30 µM | > 30 µM | – | > 30 µM | > 10 µM | > 30 µM |
| CC(C(=O)O)c1ccc(N2Cc3ccccc3C2=O)cc1 (configuration not stated) [INDOPROFEN] | > 30 µM | > 30 µM | > 30 µM | > 30 µM | > 30 µM | > 30 µM | > 30 µM | > 30 µM | – | 0.0694 µM | > 30 µM | 16.8 µM |
| CC(Oc1c(Cl)cccc1Cl)C1=NCCN1 (configuration not stated) [LOFEXIDINE] | > 30 µM | > 30 µM | > 30 µM | > 30 µM | > 30 µM | > 30 µM | > 30 µM | 11 µM | – | > 30 µM | > 30 µM | > 30 µM |
| CC(C)=CCC/C(C)=C/C=C/C(C)=C/C=C/C(C)=C/C=C/C=C(C)/C=C/C=C(C)/C=C/C=C(\C)CCC=C(C)C [LYCOPENE] | > 30 µM | > 30 µM | > 30 µM | > 30 µM | > 30 µM | > 30 µM | > 30 µM | > 30 µM | – | > 30 µM | > 30 µM | > 30 µM |
| CCCc1nc(C(C)(C)O)c(C(=O)OCc2oc(=O)oc2C)n1Cc1ccc(-c2ccccc2-c2nnn[nH]2)cc1 [OLMESARTAN MEDOXOMIL] | 11 µM | > 10 µM | > 10 µM | > 10 µM | > 30 µM | > 50 µM | > 30 µM | > 30 µM | > 30 µM | > 30 µM | > 10 µM | – |
| CC[C@@H]1C(=O)OC[C@@H]1Cc1cncn1C [PILOCARPINE] | > 30 µM | > 30 µM | > 10 µM | – | > 30 µM | – | > 30 µM | > 30 µM | > 30 µM | > 30 µM | > 10 µM | – |
| CN1CCC(=C2c3ccccc3CCc3sccc32)CC1 [PIZOTYLINE] | > 30 µM | > 30 µM | > 30 µM | > 30 µM | > 30 µM | – | 13.4 µM | 8.88 µM | > 30 µM | > 30 µM | > 10 µM | – |
| C#C[C@]1(O)CC[C@H]2[C@@H]3CCc4cc(OC5CCCC5)ccc4[C@H]3CC[C@@]21C [QUINESTROL] | > 30 µM | > 30 µM | > 10 µM | > 10 µM | > 10 µM | – | > 10 µM | > 10 µM | – | > 10 µM | > 10 µM | 0.221 µM |
| COC(=O)[C@H]1[C@H]2C[C@@H]3c4[nH]c5cc(OC)ccc5c4CCN3C[C@H]2C[C@@H](OC(=O)/C=C/c2cc(OC)c(OC)c(OC)c2)[C@@H]1OC [RESCINNAMINE] | > 30 µM | > 30 µM | > 10 µM | > 10 µM | > 10 µM | – | 18.9 µM | > 30 µM | – | 11.6 µM | > 10 µM | > 10 µM |
| C=CCC1(C(C)CC)C(=O)NC(=O)NC1=O (configuration not stated) [TALBUTAL] | > 30 µM | > 30 µM | > 10 µM | > 10 µM | > 10 µM | – | > 10 µM | > 10 µM | – | > 10 µM | > 10 µM | > 10 µM |
| C[C@H](CSC(=O)c1ccccc1)C(=O)N1C[C@@H](Sc2ccccc2)C[C@H]1C(=O)O [ZOFENOPRIL] | > 30 µM | > 30 µM | > 10 µM | > 10 µM | > 10 µM | – | > 10 µM | > 10 µM | – | > 10 µM | > 10 µM | > 10 µM |
